5 compounds from PubChem BioAssay AID1918941 (Molecular Pharmacology Branch, DTP, NCI, 2023) can be followed below.

The assay deals with SW 1271 complex spheroids, viability. The assay is described as follows: Anticancer human tumor SW 1271 cell line growth inhibition [LSD1].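 On all read-outs here: spheroids exposed to agents for 7 days before luminescence read.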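 On viability, T/C: 100% = DMSO vehicle control viability.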 Particulars: for viability, T/C: stronger effect = lower value. The method in brief:
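Multicellular complex spheroids of tumor cells with human endothelial cells (HUVEC) and mesenchymal stem cells; the LSD1 inhibitor iadademstat was combined with standard-of-care or investigational agents. Top concentration at or near clinical Cmax, half-log dilutions; final DMSO ≤0.25%.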

Setting [1] is: curve of first compound, second compound 0.1 µM.
The mark [2] stands for this setting: curve of first compound, second compound 0.316 µM.
The mark [3] stands for this setting: curve of first compound, second compound 1 µM.
[4] abbreviates: curve of first compound, second compound 3.16 µM.
Where [5] appears, read: curve of first compound, second compound 10 µM.
The mark [6] stands for this setting: second compound 0.1 µM, first compound 0.0316 µM.
The mark [7] stands for this setting: second compound 0.1 µM, first compound 0.1 µM.
[8] abbreviates: second compound 0.1 µM, first compound 0.316 µM.
Where [9] appears, read: second compound 0.1 µM, first compound 1 µM.
The mark [10] stands for this setting: second compound 0.316 µM, first compound 0.0316 µM.
Where [11] appears, read: second compound 0.316 µM, first compound 0.1 µM.
Where [12] appears, read: second compound 0.316 µM, first compound 0.316 µM.
Where [13] appears, read: second compound 0.316 µM, first compound 1 µM.
Where [14] appears, read: second compound 1 µM, first compound 0.0316 µM.
Setting [15] is: second compound 1 µM, first compound 0.1 µM.
Setting [16] is: second compound 1 µM, first compound 0.316 µM.
[17] abbreviates: second compound 1 µM, first compound 1 µM.
[18] abbreviates: second compound 3.16 µM, first compound 0.0316 µM.
Where [19] appears, read: second compound 3.16 µM, first compound 0.1 µM.
[20] abbreviates: second compound 3.16 µM, first compound 0.316 µM.
Where [21] appears, read: second compound 3.16 µM, first compound 1 µM.
[22] abbreviates: second compound 10 µM, first compound 0.0316 µM.
[23] abbreviates: second compound 10 µM, first compound 0.1 µM.
Setting [24] is: second compound 10 µM, first compound 0.316 µM.
Where [25] appears, read: second compound 10 µM, first compound 1 µM.
[26] abbreviates: second compound 0.1 µM, first compound 0.00316 µM.
The mark [27] stands for this setting: second compound 0.1 µM, first compound 0.01 µM.
[28] abbreviates: second compound 0.316 µM, first compound 0.00316 µM.
The mark [29] stands for this setting: second compound 0.316 µM, first compound 0.01 µM.
Where [30] appears, read: second compound 1 µM, first compound 0.00316 µM.
Setting [31] is: second compound 1 µM, first compound 0.01 µM.
The mark [32] stands for this setting: second compound 3.16 µM, first compound 0.00316 µM.
The mark [33] stands for this setting: second compound 3.16 µM, first compound 0.01 µM.
Setting [34] is: second compound 10 µM, first compound 0.00316 µM.
The mark [35] stands for this setting: second compound 10 µM, first compound 0.01 µM.

Values joined by “and” are separate entries in the source; they are usually repeats but may differ in a detail not shown here. Equal values may be shown once.

Turning to `COc1ccc([C@@H](O)c2cc(-c3ncnc4cc(N5CCOCC5)ccc34)c(F)cc2Cl)nn1` + NC1CCC(NC2CC2c2ccccc2)CC1, the concentration for half-maximal inhibition (IC50) is, setting by setting: under setting [1], 0.811 µM; under setting [2], 0.542 µM; under setting [3], 0.608 µM; under setting [4], 0.836 µM; under setting [5], 0.436 µM. The viability, T/C is 92% under setting [6]; 84.7% under setting [7]; 62.1% under setting [8]; 49.4% under setting [9]; 29.2% (second compound 0.1 µM, first compound 3.16 µM); 21% (second compound 0.1 µM, first compound 10 µM). Also, the viability, T/C by setting is: under setting [10], 82.1%; under setting [11], 70.6%; under setting [12], 58.2%; under setting [13], 40.8%; (second compound 0.316 µM, first compound 3.16 µM) 30.3%; (second compound 0.316 µM, first compound 10 µM) 21.4%. In addition, the viability, T/C was 75% under setting [14]; 65.3% under setting [15]; 65.2% under setting [16]; 38.7% under setting [17]; 27.5% (second compound 1 µM, first compound 3.16 µM); 21.6% (second compound 1 µM, first compound 10 µM). For the same compound, the viability, T/C under setting [18] is 68%; the viability, T/C under setting [19] is 65.2%; the viability, T/C under setting [20] is 66.2%; the viability, T/C under setting [21] is 46.3%; the viability, T/C (second compound 3.16 µM, first compound 3.16 µM) is 25.5%; the viability, T/C (second compound 3.16 µM, first compound 10 µM) was 16.7%. Further, the viability, T/C by setting is: under setting [22], 89.4%; under setting [23], 60%; under setting [24], 50.4%; under setting [25], 49%; (second compound 10 µM, first compound 3.16 µM) 26.6%; (second compound 10 µM, first compound 10 µM) 14.9%.

On to `CC(C)CC(NC(=O)CNC(=O)c1cc(Cl)ccc1Cl)B1OC(=O)CC(CC(=O)O)(C(=O)O)O1` (stereo not drawn), for which the viability, T/C (compound 0.000316 µM) is 99.2% and 97.3%; the viability, T/C (compound 0.001 µM) was 91.3% and 86.2%; the viability, T/C (compound 0.00316 µM) is 74.4% and 88%; the viability, T/C (compound 0.01 µM) is 6.54% and 16.7%; the viability, T/C (compound 0.0316 µM) is 0.32% and 0.39%; the viability, T/C (compound 0.1 µM) was 0.31% and 0.4%. In addition, the half-inhibitory concentration (IC50) (curve of compound) was 0.00478 µM and 0.00584 µM.

As to `CC[C@@]1(O)C(=O)OCc2c1cc1n(c2=O)Cc2cc3c(CN(C)C)c(O)ccc3nc2-1` + NC1CC1c1ccc(-c2cccc(O)c2)cc1, the IC50 was 0.0526 µM under setting [1]; 0.0446 µM under setting [2]; 0.0278 µM under setting [3]; > 0.1 µM under setting [4]; 0.057 µM under setting [5]. The viability, T/C is, setting by setting: (second compound 0.1 µM, first compound 0.000316 µM) 93.2%; (second compound 0.1 µM, first compound 0.001 µM) 81.3%; under setting [26], 72.5%; under setting [27], 63.6%; under setting [6], 55.9%; under setting [7], 43.5%. The viability, T/C runs as follows: (second compound 0.316 µM, first compound 0.000316 µM) 83%; (second compound 0.316 µM, first compound 0.001 µM) 79.4%; under setting [28], 77.4%; under setting [29], 63.6%; under setting [10], 54.7%; under setting [11], 41.6%. Moreover, the viability, T/C (second compound 1 µM, first compound 0.000316 µM) is 76.6%; the viability, T/C (second compound 1 µM, first compound 0.001 µM) was 79.5%; the viability, T/C under setting [30] was 69.1%; the viability, T/C under setting [31] was 53.4%; the viability, T/C under setting [14] is 52.4%; the viability, T/C under setting [15] is 46.5%. Moreover, the viability, T/C is, setting by setting: (second compound 3.16 µM, first compound 0.000316 µM) 84.9%; (second compound 3.16 µM, first compound 0.001 µM) 75.5%; under setting [32], 66%; under setting [33], 59.2%; under setting [18], 54.3%; under setting [19], 50.5%. Further, the viability, T/C reads like this: (second compound 10 µM, first compound 0.000316 µM) 74.7%; (second compound 10 µM, first compound 0.001 µM) 78.9%; under setting [34], 62.1%; under setting [35], 58.2%; under setting [22], 54.1%; under setting [23], 47.3%.

For `CC1COCCN1c1cc(-c2ccnn2C)c2ccnc(-c3ccn[nH]3)c2n1` (stereo not drawn) + NC1CCC(NC2CC2c2ccccc2)CC1, the half-maximal inhibitory concentration (IC50) under setting [1] turned out to be 0.0595 µM; the IC50 under setting [2] turned out to be 0.103 µM; the IC50 under setting [3] is 0.0553 µM; the half-inhibitory concentration (IC50) under setting [4] came out at 0.0554 µM; the IC50 under setting [5] stood at 0.0473 µM. Besides, the viability, T/C runs as follows: under setting [26], 59.3%; under setting [27], 76.7%; under setting [6], 56.3%; under setting [7], 42.7%; under setting [8], 42.2%; under setting [9], 29.8%. In addition, the viability, T/C runs as follows: under setting [28], 71.4%; under setting [29], 71.2%; under setting [10], 58.2%; under setting [11], 42.7%; under setting [12], 48.8%; under setting [13], 28.6%. Also, the viability, T/C is, setting by setting: under setting [30], 68.5%; under setting [31], 62%; under setting [14], 56.2%; under setting [15], 39.6%; under setting [16], 44.3%; under setting [17], 30.3%. For the same compound, the viability, T/C is 68.4% under setting [32]; 56.4% under setting [33]; 55.8% under setting [18]; 44.8% under setting [19]; 42% under setting [20]; 31.4% under setting [21]. The viability, T/C runs as follows: under setting [34], 78.1%; under setting [35], 66.9%; under setting [22], 53.1%; under setting [23], 41.8%; under setting [24], 38.5%; under setting [25], 29.9%.

As to `O=C(C=Cc1cccc(S(=O)(=O)Nc2ccccc2)c1)NO`, the viability, T/C by setting is: (compound 0.00949 µM) 89.7% and 88.1%; (compound 0.03 µM) 74.9% and 70.5%; (compound 0.0949 µM) 57.1% and 58.1%; (compound 0.3 µM) 19.1% and 23.3%; (compound 0.949 µM) 9.01% and 12.3%. Besides, the 50% inhibitory concentration (IC50) (curve of compound) was 0.228 µM and 0.109 µM.
